# Legend:
# 15N-labeled Aβ42 = molecular target: T1, 15N-labeled Aβ42 (Homo sapiens, UniProt P05067); experiment: 2D SOFAST-HMQC NMR with 15N-labeled Aβ42; type: binding; settings: 15N-Aβ42 33 μM; 6 100 μM; 10 °C
# T1 construct: the human Ab42 peptide was artificially constructed using codons; extra Met residue (start codon) before Asp1 (N); made in house; host or cells: E. coli BL21 (DE3) pLysS, pAED4 vector
# Protocol: Cell viability was determined by the MTT assay [MTT = 3-(4,5-dimethylthiazol-2-yl)-2,5-diphenyltetrazolium bromide]. Cells were seeded in a 96-well plate (15,000 cells/100 µL) and treated with the samples {[flavonoid] = 5, 10, 25, 50, and 100 µM (1% v/v DMSO)}. After 24 h incubation, 5Y cells were washed with phosphate buffered saline (PBS; GIBCO). MTT [5 mg/mL in PBS (pH 7.4, GIBCO); 25 µL] was added to each well and the plate was incubated for 4 h at 37 °C. The formazan produced by cells was solubilized using an acidic solution of DMF (pH 4.5, 50% v/v, aq) and sodium dodecyl sulfate (SDS; 20% w/v) overnight at room temperature in the dark. Absorbance was measured at 600 nm by a microplate reader (Molecular Devices). Cell viability, relative to that of the cells containing an equivalent amount of DMSO, was calculated.
# The measurements were conducted in triplicate. […]
# loading into the instrument. […]
# The initial delay and the reference power were 60 s and 10 µcal/s, […]
# The ITC thermogram and binding isotherm were shown after the subtraction of the dilution heat.
# The binding isotherm after baseline correction was fitted to the one-set-of-sites binding model using the MicroCal Origin software (version 7.0).
# Expression and Purification of 15N-labeled Recombinant Ab42. […]
# 15N-labeled Aβ40 = molecular target: T2, 15N-labeled Aβ40 (Homo sapiens, UniProt P05067); experiment: 2D SOFAST-HMQC NMR with 15N-labeled Aβ40; type: binding; settings: 15N-Aβ40 33 μM; 6 100 μM; 10 °C
# T2 construct: AEDVG SNKGA IIGLM VGGVV; purchased rPeptide (Georgia, GA, USA)
# Protocol: 2D 1H−15N SOFAST-HMQC NMR Experiments. […] To remove possible preformed aggregates, the lyophilized peptide was then redissolved in diluted NaOH (pH 10) and passed through a filter (0.22 µm). On the other hand, the stock solution of 15N-labeled Ab42 based on the previous report.27 Briefly, uniformly 15N-labeled Ab42 was solubilized in diluted NaOH (pH 10) at a concentration of ~200 µM. The undissolved precipitates of Ab42 were removed by centrifugation at 40,000 rpm for 1 h. The solution of 15N-labeled Ab (33 µM) was prepared with and without 6 (100 µM; 1% v/v DMSO) in 20 mM HEPES, pH 7.4 (10% v/v D2O) for NMR experiments. All spectra were acquired with 180 scans at 10 °C. Dimensions of the spectra were 1,024 (1H) ´ 128 (15N) points. Experimental data were processed with NMRpipe29 and Sparky 3.115.30 The 1H and 15N assignments of 15N-labeled Ab were determined based on the previous results.21,31 The chemical shift perturbation was calculated following the equation (eq 4).32 Note that DdH and DdN represent the alterations in the chemical shifts of 1H and 15N of 15N-labeled Ab, respectively.
# Aβ42 = molecular target: T3, Aβ42 (Homo sapiens, UniProt P05067); experiment: ESI-MS and ESI-MS2 of Aβ42 treated with 6; settings: 6 200 μM, 3 h
# T3 construct: purchased Peptide Institute, Inc. (Osaka, Japan)
# From the text: To identify the modifications of Aβ in both the absence and presence of Cu(II) upon treatment of 6, we carried out the studies employing electrospray ionization mass spectrometry (ESI-MS). In the sample containing metal-free Aβ42 and 6, the addition of +16 Da into the +3-charged Aβ42 monomer, assigned to be the oxidized monomeric Aβ42, was detected (Fig. 7a), while such oxidation was not observed under anaerobic conditions (Fig. S20 ^†). To determine the oxidized amino acid residues in Aβ42, the b fragments generated by collision-induced dissociation were analyzed by tandem MS (ESI-MS^2). As illustrated in Fig. 7b and S21a, ^† the Met35 residue was measured to be the oxidation site in the singly oxidized Aβ42. […] Similar to metal-free Aβ42, the oxidation of Aβ40 at the Met35 residue was monitored by incubation with 6 (Fig. S22a, b and S23a ^†). […]
# 2D 1H−15N SOFAST-HMQC NMR Experiments. […] Experimental data were processed with NMRpipe29 and Sparky 3.115.30 The 1H and 15N assignments of 15N-labeled Ab were determined based on the previous results.21,31 The chemical shift perturbation was calculated following the equation (eq 4).32 Note that DdH and DdN represent the alterations in the chemical shifts of 1H and 15N of 15N-labeled Ab, respectively. […]
# T3 sequence (P05067 672-713 limits assumed): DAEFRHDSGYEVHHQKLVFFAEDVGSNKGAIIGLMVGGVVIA
# T2 sequence (P05067 672-711 limits assumed): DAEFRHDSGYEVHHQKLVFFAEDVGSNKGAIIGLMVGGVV
# T1 sequence (P05067 671-713 limits assumed): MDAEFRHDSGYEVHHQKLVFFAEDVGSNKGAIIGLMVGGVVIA
compound,measurement,setting,value
"O=c1c(-c2ccc(O)c(O)c2)coc2cc(O)c(O)c(O)c12 [compound 6, 3-(3,4-dihydroxyphenyl)-5,6,7-trihydroxy-4H-chromen-4-one]",decrease of overall NMR peak intensity,15N-labeled Aβ42,ca. 20%
same,decrease of overall NMR peak intensity,15N-labeled Aβ40,ca. 10%
same,plausible oxidation sites in singly oxidized Aβ,"Aβ42; Cu(II)–Aβ42, Cu(II) 100 μM","His13, His14, and Met35"
same,oxidation site in singly oxidized Aβ,"Aβ42; metal-free Aβ42 100 μM, aerobic",Met35
